Test results from patent US11498930B2 (BLUERAY THERAPEUTICS (SHANGHAI) CO., LTD., priority 2018, dated 2022).
Like-named read-outs stand apart in the source and are kept apart here.

How the values were obtained:
SHP2^E76A protein = SHP2^E76A protein (Homo sapiens (Human), UniProt Q06124, E76A); assay: SHP2 enzyme activity inhibition experiment; type: biochemical
How it was run: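 Compounds tested at 10 concentrations in 3-fold serial dilution. IC50 from a four-parameter Hill-slope nonlinear fit of enzyme activity versus concentration.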

[1] = test system: phosphorylation level of intracellular protein kinase (ERK) in MOLM13 cells; assay: Phosphorylated protein kinase (p-ERK) cell experiment (AlphaLISA); type: cell-based; details: Homo sapiens, MOLM-13, MOLM13 cells
Procedure: The inhibitory activities of the compounds on the phosphorylation level of intracellular protein kinase (ERK) were determined by AlphaLISA method.
Firstly, the cells were treated with the compounds. The compounds to be tested were subjected to 3-fold dilution with 100% DMSO, and a total of 9 different concentration gradients were set. MOLM13 cells were then seeded into 96-well plates at a density of 30,000 cells per well in a volume of 100 µL per well. […] of DMSO or the test compounds with different concentrations was then transferred into each well, setting two duplicates for each concentration, and the final concentration of DMSO was controlled at 0.5%.
Secondly, the cells were lysed. After 2 hours of cell treatment, the medium was removed, and the cells were washed 3 times with phosphate buffered saline. 50 µL of freshly prepared lysis buffer was added to each well, and the plates were shaken and kept at room temperature for 10 minutes.
Thirdly, the phosphorylated extracellular signal-regulated kinase (p-ERK) was detected by AlphaLISA@ SureFire® Ultra™ p-ERK 1/2 (Thr202/Tyr204) kit (Perkin Elmer, ALSU-PERK-A10K). 10 µL of the above lysate was transferred to a 384-well plate (Perkin Elmer, 6005350), and the phosphorylation level of the extracellular signal-regulated kinase of the sample was detected according to the product instructions. The signal was read using AlphaScreen detector on Spectra max i3 (Molecular Devices). The percentage of inhibition (%) was calculated by the following formula: Inhibition percentage(%)=(1−p-ERK signal of compound-treated cells/p-ERK signal of DMSO-treated cells)*100

MOLM-13 cells = assay: MOLM-13 cell proliferation experiment; type: cell-based; details: Homo sapiens
Procedure: After 3 days, 5 µL of CellTiter-Glo reagent (Promega, ZG7572) was added to each well, and the plates were kept at room temperature in the dark for 10 minutes. The […] was detected by Spectra max i3 (Molecular Devices). The relative growth rate of the treated cells was compared with that of DMSO control.

[2] = SHP2 enzyme activity, Tables 1.1 and 1.2, read-out: IC50
[3] = Table 4, read-out: SHP2 enzyme activity IC50
[4] = p-ERK, 2 hours of cell treatment, Tables 2.1 and 2.2, read-out: IC50
[5] = MOLM-13, 72 h, MOLM-13 cell proliferation, 3 days, Tables 3.1 and 3.2, read-out: IC50
[6] = MOLM-13, read-out: MOLM-13 cell proliferation IC50

Sequence of SHP2^E76A protein (Q06124 whole entry E76A): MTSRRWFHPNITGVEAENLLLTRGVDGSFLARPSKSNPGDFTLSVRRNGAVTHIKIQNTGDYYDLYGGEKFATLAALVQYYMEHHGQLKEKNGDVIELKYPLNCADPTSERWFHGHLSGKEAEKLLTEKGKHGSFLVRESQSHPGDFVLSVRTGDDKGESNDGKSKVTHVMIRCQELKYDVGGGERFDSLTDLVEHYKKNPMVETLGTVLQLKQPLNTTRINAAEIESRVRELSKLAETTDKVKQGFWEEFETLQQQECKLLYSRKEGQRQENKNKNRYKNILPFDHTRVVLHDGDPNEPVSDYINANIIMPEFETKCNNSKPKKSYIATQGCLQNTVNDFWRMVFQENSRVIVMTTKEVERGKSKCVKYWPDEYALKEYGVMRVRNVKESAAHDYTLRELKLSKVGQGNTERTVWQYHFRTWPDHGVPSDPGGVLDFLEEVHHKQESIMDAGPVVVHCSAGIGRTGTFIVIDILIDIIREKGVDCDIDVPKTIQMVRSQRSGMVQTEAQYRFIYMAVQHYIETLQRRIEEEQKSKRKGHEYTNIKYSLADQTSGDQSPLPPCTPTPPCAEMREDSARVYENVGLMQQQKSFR

SMILES	IC50 (SHP2^E76A protein; [2]) [nM]	IC50 (SHP2^E76A protein; [3]) [nM]	IC50 ([1]; Table 4, read-out: p-ERK IC50) [nM]	IC50 [1, 4] [nM]	IC50 (MOLM-13 cells; [5]) [nM]	IC50 (MOLM-13 cells; [6]) [nM]
Nc1cc(Sc2cnc(N3CCC4(CCC[C@H]4N)CC3)n3cnnc23)c(Cl)c(Cl)n1 [(R)-8-(8-((6-amino-2,3-dichloropyridin-4-yl)thio)-[1,2,4]triazolo[4,3-c]pyrimidin-5-yl)-8-azaspiro[4.5]decan-1-amine]	< 100	20	750	100 to 1000	100 to 1000	303
CC1C[C@@H](N)C2(CCN(c3ncc(Sc4cccc(Cl)c4Cl)c4nccn34)CC2)C1 (stereo partly drawn) [(1R)-8-(8-((2,3-dichlorophenyl)thio)imidazo[1,2-c]pyrimidin-5-yl)-3-methyl-8-azaspiro[4.5]decan-1-amine]	< 100	11	53	< 100	100 to 1000	140
CC1CCC2(CCN(c3ncc(Sc4cccc(Cl)c4Cl)c4nccn34)CC2)[C@@H]1N (stereo partly drawn) [(1R)-8-(8-((2,3-dichlorophenyl)thio)imidazo[1,2-c]pyrimidin-5-yl)-2-methyl-8-azaspiro[4.5]decan-1-amine]	< 100			100 to 1000	100 to 1000	
CC1C[C@@H](N)C2(CCN(c3ncc(Sc4ccnc(N)c4Cl)c4nccn34)CC2)C1 (stereo partly drawn) [(1R)-8-(8-((2-amino-3-chloropyridin-4-yl)thio)imidazo[1,2-c]pyrimidin-5-yl)-3-methyl-8-azaspiro[4.5]decan-1-amine]	< 100	32	59	< 100	< 100	54
CC1(N)CCN(c2ncc(Sc3cccc(Cl)c3Cl)c3nncn23)CC1 [1-(8-((2,3-dichlorophenyl)thio)-[1,2,4]triazolo[4,3-c]pyrimidin-5-yl)-4-methylpiperidin-4-amine]	100 to 1000			1000 to 10000	1000 to 10000	
C=CC(=O)Nc1cccc(Sc2cnc(N3CCC4(CCC[C@H]4N)CC3)n3cnnc23)c1Cl [(R)-N-(3-((5-(1-amino-8-azaspiro[4.5]decan-8-yl)-[1,2,4]triazolo[4,3-c]pyrimidin-8-yl)thio)-2-chlorophenyl)acrylamide]	100 to 1000			1000 to 10000	100 to 1000	
N[C@@H]1CCCCC12CCN(c1ncc(Sc3cccc(Cl)c3Cl)c3nncn13)CC2 [(R)-3-(8-((2,3-dichlorophenyl)thio)-[1,2,4]triazolo[4,3-c]pyrimidin-5-yl)-3-azaspiro[5.5]undecan-7-amine]	100 to 1000			1000 to 10000	1000 to 10000	
N[C@@H]1CCC12CCN(c1ncc(Sc3cccc(Cl)c3Cl)c3nccn13)CC2 [(R)-7-(8-((2,3-dichlorophenyl)thio)imidazo[1,2-c]pyrimidin-5-yl)-7-azaspiro[3.5]nonan-1-amine]	100 to 1000			100 to 1000	100 to 1000	
Cc1nccc(Sc2cnc(N3CCC4(CCC[C@H]4N)CC3)n3cnnc23)c1Cl [(R)-8-(8-((3-chloro-2-methylpyridin-4-yl)thio)-[1,2,4]triazolo[4,3-c]pyrimidin-5-yl)-8-azaspiro[4.5]decan-1-amine]	< 100	27	177	100 to 1000	100 to 1000	232
Cc1nc(N)cc(Sc2cnc(N3CCC4(CCC[C@H]4N)CC3)n3ccnc23)c1Cl [(R)-8-(8-((6-amino-3-chloro-2-methyl-pyridin-4-yl)thio)imidazo[1,2-c]pyrimidin-5-yl)-8-azaspiro[4.5]decan-1-amine]		17	37	< 100		210
N[C@@H]1CCCC12CCN(c1ncc(Sc3ccncc3C(F)(F)F)c3nccn13)CC2 [(R)-8-(8-((3-(trifluoromethyl)pyridin-4-yl)thio)imidazo[1,2-c]pyrimidin-5-yl)-8-azaspiro[4.5]decan-1-amine]	< 100			100 to 1000	100 to 1000	
CN(C)c1nccc(Sc2cnc(N3CCC4(CCC[C@H]4N)CC3)n3ccnc23)c1Cl [(R)-8-(8-((3-chloro-2-(dimethylamino)pyridin-4-yl)thio)imidazo[1,2-c]pyrimidin-5-yl)-8-azaspiro[4.5]decan-1-amine]	< 100			100 to 1000	100 to 1000	
CC1(N)CCN(c2ncc(Sc3ccnc(N)c3Cl)c3nncn23)CC1 [4-((5-(4-amino-4-methylpiperidin-1-yl)-[1,2,4]triazolo[4,3-c]pyrimidin-8-yl)thio)-3-chloropyridin-2-amine]	100 to 1000			1000 to 10000	1000 to 10000	
Nc1cc(Sc2cnc(N3CCC4(CCC[C@H]4N)CC3)n3ccnc23)c(Cl)c(Cl)n1 [(R)-8-(8-((6-amino-2,3-dichloropyridin-4-yl)thio)imidazo[1,2-c]pyrimidin-5-yl)-8-azaspiro[4.5]decan-1-amine]	< 100	12	9	< 100	< 100	16
N[C@@H]1CCCC12CCN(c1ncc(Sc3ccnc(Cl)c3Cl)c3nccn13)CC2 [(R)-8-(8-((2,3-dichloropyridin-4-yl)thio)imidazo[1,2-c]pyrimidin-5-yl)-8-azaspiro[4.5]decan-1-amine]	< 100	57	159	100 to 1000	< 100	42
C[C@@H]1OCC2(CCN(c3ncc(Sc4ccnc(Cl)c4Cl)c4nccn34)CC2)[C@@H]1N [(3S,4S)-8-(8-((2,3-dichloropyridin-4-yl)thio)imidazo[1,2-c]pyrimidin-5-yl)-3-methyl-2-oxa-8-azaspiro[4.5]decan-4-amine]	< 100	5	35	< 100	< 100	38
Nc1cccc(Sc2cnc(N3CCC4(CCC[C@H]4N)CC3)n3cnnc23)c1Cl [(R)-8-(8-((3-amino-2-chlorophenyl)thio)-[1,2,4]triazolo[4,3-c]pyrimidin-5-yl)-8-azaspiro[4.5]decan-1-amine]	< 100	25	245	100 to 1000	100 to 1000	389
N[C@@H]1COCC12CCN(c1ncc(Sc3ccnc(Cl)c3Cl)c3nccn13)CC2 [(S)-8-(8-((2,3-dichloropyridin-4-yl)thio)imidazo[1,2-c]pyrimidin-5-yl)-2-oxa-8-azaspiro[4.5]decan-4-amine]	< 100			100 to 1000	100 to 1000	
N[C@@H]1COCC12CCN(c1ncc(Sc3cccc(Cl)c3Cl)c3ncnn13)CC2 [(S)-8-(8-((2,3-dichlorophenyl)thio)-[1,2,4]triazolo[1,5-c]pyrimidin-5-yl)-2-oxa-8-azaspiro[4.5]decan-4-amine]	100 to 1000			1000 to 10000	100 to 1000	
COc1ccccc1Sc1cnc(N2CCC3(CCC[C@H]3N)CC2)n2ccnc12 [(R)-8-(8-((2-methoxyphenyl)thio)imidazo[1,2-c]pyrimidin-5-yl)-8-azaspiro[4.5]decan-1-amine]	< 100	83	469	100 to 1000	100 to 1000	210
Nc1cc(Sc2cnc(N3CCC4(CC3)COC[C@H]4N)n3ccnc23)c(Cl)c(Cl)n1 [(S)-8-(8-((6-amino-2,3-dichloropyridin-4-yl)thio)imidazo[1,2-c]pyrimidin-5-yl)-2-oxa-8-azaspiro[4.5]decan-4-amine]	< 100	9	28	< 100	< 100	54
Nc1cc(Sc2cnc(N3CCC4(CCC[C@H]4N)CC3)n3ccnc23)c(Cl)cn1 [(R)-8-(8-((2-amino-5-chloropyridin-4-yl)thio)imidazo[1,2-c]pyrimidin-5-yl)-8-azaspiro[4.5]decan-1-amine]	< 100	25	32	< 100	< 100	43
N[C@@H]1CC(O)CC12CCN(c1ncc(Sc3cccc(Cl)c3Cl)c3nccn13)CC2 (stereo partly shown)	< 100	9	28	< 100	< 100	42
C[C@@H]1OCC2(CCN(c3ncc(Sc4cccc(Cl)c4Cl)c4nncn34)CC2)[C@@H]1N		3	195			158
